Laboratory results reported in the NIST ThermoML archive (doi:10.1021/je060390q).

Columns and labels:
[1] = Maximal bubble pressure
[2] = xn = mol fraction of the nth substance listed; conditions: Maximal bubble pressure

Cc1ccccc1C [1,2-dimethylbenzene]
[1]
Conditions | surface tension liquid-gas [mN/m]
303.15 K | 28.98
308.15 K | 28.43
313.15 K | 27.88
318.15 K | 27.33
323.15 K | 26.78
333.15 K | 25.68
343.15 K | 24.58

Cc1ccccc1C [1,2-dimethylbenzene] + CC(=O)O
surface tension liquid-gas [mN/m], [2]
Conditions | x2 = 0 | x2 = 0.1001 | x2 = 0.2001 | x2 = 0.3002 | x2 = 0.4 | x2 = 0.5 | x2 = 0.6213 | x2 = 0.7001 | x2 = 0.8 | x2 = 0.9
303.15 K | 28.98 | 28.81 | 28.56 | 28.32 | 28.07 | 27.81 | 27.5 | 27.29 | 27.03 | 26.74
308.15 K | 28.43 | 28.26 | 28.03 | 27.78 | 27.54 | 27.29 | 26.98 | 26.78 | 26.5 | 26.24
313.15 K | 27.88 | 27.71 | 27.49 | 27.25 | 27.01 | 26.77 | 26.47 | 26.26 | 25.99 | 25.74
318.15 K | 27.33 | 27.17 | 26.94 | 26.7 | 26.47 | 26.23 | 25.94 | 25.74 | 25.48 | 25.22
323.15 K | 26.78 | 26.62 | 26.4 | 26.17 | 25.95 | 25.71 | 25.42 | 25.22 | 24.97 | 24.72
333.15 K | 25.68 | 25.54 | 25.32 | 25.11 | 24.89 | 24.67 | 24.4 | 24.2 | 23.97 | 23.73
343.15 K | 24.58 | 24.45 | 24.24 | 24.04 | 23.84 | 23.63 | 23.37 | 23.18 | 22.95 | 22.73

Cc1cccc(C)c1 [1,3-dimethylbenzene]
[1]
Conditions | surface tension liquid-gas [mN/m]
303.15 K | 27.58
308.15 K | 27.04
313.15 K | 26.49
318.15 K | 25.94
323.15 K | 25.38
333.15 K | 24.27
343.15 K | 23.18

Cc1cccc(C)c1 [1,3-dimethylbenzene] + CC(=O)O
surface tension liquid-gas [mN/m], [2]
Conditions | x2 = 0 | x2 = 0.1001 | x2 = 0.2001 | x2 = 0.3 | x2 = 0.4188 | x2 = 0.4999 | x2 = 0.5999 | x2 = 0.7018 | x2 = 0.7999 | x2 = 0.9
303.15 K | 27.58 | 27.51 | 27.4 | 27.3 | 27.17 | 27.07 | 26.95 | 26.87 | 26.71 | 26.56
308.15 K | 27.04 | 26.97 | 26.87 | 26.77 | 26.63 | 26.55 | 26.47 | 26.36 | 26.19 | 26.06
313.15 K | 26.49 | 26.42 | 26.33 | 26.24 | 26.1 | 26.03 | 25.95 | 25.84 | 25.68 | 25.56
318.15 K | 25.94 | 25.88 | 25.78 | 25.69 | 25.58 | 25.5 | 25.42 | 25.32 | 25.17 | 25.04
323.15 K | 25.38 | 25.32 | 25.24 | 25.15 | 25.04 | 24.98 | 24.9 | 24.76 | 24.65 | 24.55
333.15 K | 24.27 | 24.23 | 24.16 | 24.08 | 23.98 | 23.92 | 23.85 | 23.74 | 23.65 | 23.55
343.15 K | 23.18 | 23.15 | 23.08 | 23.02 | 22.93 | 22.88 | 22.82 | 22.72 | 22.63 | 22.55

CC(=O)O [acetic acid]
[1]
Conditions | surface tension liquid-gas [mN/m]
303.15 K | 26.4
308.15 K | 25.91
313.15 K | 25.41
318.15 K | 24.91
323.15 K | 24.42
333.15 K | 23.44
343.15 K | 22.45

CC(=O)O [acetic acid] + Cc1cccc(C)c1
[2], x1 = 1
Conditions | surface tension liquid-gas [mN/m]
303.15 K | 26.4
308.15 K | 25.91
313.15 K | 25.41
318.15 K | 24.91
323.15 K | 24.42
333.15 K | 23.44
343.15 K | 22.45

CC(=O)O [acetic acid] + Cc1ccccc1C
[2], x1 = 1
Conditions | surface tension liquid-gas [mN/m]
303.15 K | 26.4
308.15 K | 25.91
313.15 K | 25.41
318.15 K | 24.91
323.15 K | 24.42
333.15 K | 23.44
343.15 K | 22.45
